In brackets after ≈: the same amount, converted by molar mass.
Assays:
Mycobacterium avium = assay: Antimycobacterial activity against Mycobacterium avium 101 by CLSI method; format: functional
[1] = system: Mycobacterium intracellulare; assay: Antimycobacterial activity against Mycobacterium intracellulare 1956 by CLSI method; format: functional
[2] = system: Mycobacteroides abscessus; assay: Antimycobacterial activity against Mycobacterium abscessus 1 by CLSI method; format: functional
[3] = system: Mycobacteroides abscessus; assay: Antimycobacterial activity against Mycobacterium abscessus 21 by CLSI method; format: functional
[4] = system: Mycobacteroides abscessus; assay: Antimycobacterial activity against Mycobacterium abscessus 79 by CLSI method; format: functional
[5] = system: Mycobacteroides abscessus; assay: Antimycobacterial activity against Mycobacterium abscessus 103 by CLSI method; format: functional
[6] = system: Mycobacteroides abscessus; assay: Antimycobacterial activity against Mycobacterium massiliense 119 by CLSI method; format: functional, Mycobacterium abscessus subsp. massiliense
Mycobacteroides chelonae = assay: Antimycobacterial activity against Mycobacterium chelonae 93 by CLSI method; format: functional
[7] = system: Mycolicibacterium fortuitum; assay: Antimycobacterial activity against Mycobacterium fortuitum 41 by CLSI method; format: functional
[8] = system: Mycolicibacterium peregrinum; assay: Antimycobacterial activity against Mycobacterium peregrinum ATCC 700686 by CLSI method; format: functional
[9] = system: Mycobacterium tuberculosis; assay: Antimycobacterial activity against Mycobacterium tuberculosis H37Rv MC2 6206 by CLSI method; format: functional

CC12CCCC(C(=O)Nc3nc4ccc(Br)cc4s3)(CCC1)C2
MIC (Mycobacterium avium): 8 µg/mL (≈ 20.3 µM)
MIC [1]: 4 µg/mL (≈ 10.2 µM)
MIC [2]: 0.25 µg/mL (≈ 0.636 µM)
MIC [3]: 0.12 µg/mL (≈ 0.305 µM)
MIC [4]: 0.12 µg/mL (≈ 0.305 µM)
MIC [5]: 0.12 µg/mL (≈ 0.305 µM)
MIC [6]: 0.12 µg/mL (≈ 0.305 µM)
MIC (Mycobacteroides chelonae): 0.25 µg/mL (≈ 0.636 µM)
MIC [7]: 0.5 µg/mL (≈ 1.27 µM)
MIC [8]: 0.12 µg/mL (≈ 0.305 µM)

CC1CC(C(=O)Nc2nc3cc(F)cc(F)c3s2)CC(C)(C)C1 (stereo not drawn)
MIC (Mycobacterium avium): 8 µg/mL (≈ 23.6 µM)
MIC [1]: 8 µg/mL (≈ 23.6 µM)
MIC [2]: 0.5 µg/mL (≈ 1.48 µM)
MIC [3]: 0.25 µg/mL (≈ 0.739 µM)
MIC [4]: 0.25 µg/mL (≈ 0.739 µM)
MIC [5]: 0.25 µg/mL (≈ 0.739 µM)
MIC [6]: 0.25 µg/mL (≈ 0.739 µM)
MIC (Mycobacteroides chelonae): 0.25 µg/mL (≈ 0.739 µM)
MIC [7]: 0.25 µg/mL (≈ 0.739 µM)
MIC [8]: 0.12 µg/mL (≈ 0.355 µM)

CC1CC(C(=O)Nc2nc3c(F)cc(Br)cc3s2)CC(C)(C)C1 (stereo not drawn)
MIC (Mycobacterium avium): > 64 µg/mL
MIC [1]: 16 µg/mL (≈ 40.1 µM)
MIC [2]: 1 µg/mL (≈ 2.5 µM)
MIC [3]: 0.5 µg/mL (≈ 1.25 µM)
MIC [4]: 0.5 µg/mL (≈ 1.25 µM)
MIC [5]: 1 µg/mL (≈ 2.5 µM)
MIC [6]: 1 µg/mL (≈ 2.5 µM)
MIC (Mycobacteroides chelonae): 0.25 µg/mL (≈ 0.626 µM)
MIC [7]: 2 µg/mL (≈ 5.01 µM)
MIC [8]: 0.5 µg/mL (≈ 1.25 µM)

CC1(C)CCCC(C(=O)Nc2nc3ccc(C(F)(F)F)cc3s2)C1 (stereo not drawn)
MIC (Mycobacterium avium): > 64 µg/mL
MIC [1]: > 64 µg/mL
MIC [2]: > 64 µg/mL
MIC [3]: 64 µg/mL (≈ 180 µM)
MIC [4]: 64 µg/mL (≈ 180 µM)
MIC [6]: 0.5 µg/mL (≈ 1.4 µM)
MIC (Mycobacteroides chelonae): 0.25 µg/mL (≈ 0.701 µM)
MIC [7]: > 64 µg/mL
MIC [8]: 64 µg/mL (≈ 180 µM)

CC1(C(=O)Nc2nc3ccc(OC(F)(F)F)cc3s2)CCCCCC1
MIC (Mycobacterium avium): 8 µg/mL (≈ 21.5 µM)
MIC [1]: 4 µg/mL (≈ 10.7 µM)
MIC [2]: 0.25 µg/mL (≈ 0.671 µM)
MIC [3]: 0.12 µg/mL (≈ 0.322 µM)
MIC [4]: 0.12 µg/mL (≈ 0.322 µM)
MIC [5]: 0.25 µg/mL (≈ 0.671 µM)
MIC [6]: 0.12 µg/mL (≈ 0.322 µM)
MIC (Mycobacteroides chelonae): 0.25 µg/mL (≈ 0.671 µM)
MIC [7]: 2 µg/mL (≈ 5.37 µM)
MIC [8]: 0.5 µg/mL (≈ 1.34 µM)

CC1CC(C(=O)Nc2nc3cc(C(F)(F)F)ccc3s2)CC(C)(C)C1 (stereo not drawn)
MIC (Mycobacterium avium): > 64 µg/mL
MIC [1]: > 64 µg/mL
MIC [9]: ≤ 0.12 µg/mL
MIC [3]: 0.25 µg/mL (≈ 0.675 µM)
MIC [4]: 0.25 µg/mL (≈ 0.675 µM)
MIC [5]: 0.5 µg/mL (≈ 1.35 µM)
MIC [6]: 0.5 µg/mL (≈ 1.35 µM)
MIC (Mycobacteroides chelonae): 0.25 µg/mL (≈ 0.675 µM)
MIC [7]: 0.25 µg/mL (≈ 0.675 µM)
MIC [8]: 0.12 µg/mL (≈ 0.324 µM)

Cc1cc(C)c2sc(NC(=O)C3CC(C)CC(C)(C)C3)nc2c1 (stereo not drawn)
MIC (Mycobacterium avium): > 64 µg/mL
MIC [1]: > 64 µg/mL
MIC [2]: 0.5 µg/mL (≈ 1.51 µM)
MIC [3]: 0.25 µg/mL (≈ 0.756 µM)
MIC [4]: 0.25 µg/mL (≈ 0.756 µM)
MIC [5]: 0.25 µg/mL (≈ 0.756 µM)
MIC [6]: 0.5 µg/mL (≈ 1.51 µM)
MIC (Mycobacteroides chelonae): 0.25 µg/mL (≈ 0.756 µM)
MIC [7]: 0.5 µg/mL (≈ 1.51 µM)
MIC [8]: 0.25 µg/mL (≈ 0.756 µM)

CC12CCCC(C(=O)Nc3nc4cc(F)cc(F)c4s3)(CCC1)C2
MIC (Mycobacterium avium): 4 µg/mL (≈ 11.4 µM)
MIC [1]: 4 µg/mL (≈ 11.4 µM)
MIC [2]: 0.12 µg/mL (≈ 0.342 µM)
MIC [3]: 0.06 µg/mL (≈ 0.171 µM)
MIC [4]: 0.06 µg/mL (≈ 0.171 µM)
MIC [5]: 0.06 µg/mL (≈ 0.171 µM)
MIC [6]: 0.25 µg/mL (≈ 0.713 µM)
MIC (Mycobacteroides chelonae): 0.06 µg/mL (≈ 0.171 µM)
MIC [7]: 0.25 µg/mL (≈ 0.713 µM)
MIC [8]: 0.06 µg/mL (≈ 0.171 µM)

O=C(Nc1nc2ccc(C(F)(F)F)cc2s1)C1CCCC(C(F)(F)F)C1 (stereo not drawn)
MIC (Mycobacterium avium): 16 µg/mL (≈ 40.4 µM)
MIC [1]: 16 µg/mL (≈ 40.4 µM)
MIC [2]: 2 µg/mL (≈ 5.05 µM)
MIC [3]: 1 µg/mL (≈ 2.52 µM)
MIC [4]: 2 µg/mL (≈ 5.05 µM)
MIC [6]: 1 µg/mL (≈ 2.52 µM)
MIC (Mycobacteroides chelonae): 0.5 µg/mL (≈ 1.26 µM)
MIC [7]: 2 µg/mL (≈ 5.05 µM)
MIC [8]: 1 µg/mL (≈ 2.52 µM)

CC12CCCC(C(=O)Nc3nc4c(F)cc(F)cc4s3)(CCC1)C2
MIC (Mycobacterium avium): 4 µg/mL (≈ 11.4 µM)
MIC [1]: 4 µg/mL (≈ 11.4 µM)
MIC [3]: 0.12 µg/mL (≈ 0.342 µM)
MIC [4]: 0.12 µg/mL (≈ 0.342 µM)
MIC [5]: 0.25 µg/mL (≈ 0.713 µM)
MIC [6]: 0.12 µg/mL (≈ 0.342 µM)
MIC (Mycobacteroides chelonae): 0.12 µg/mL (≈ 0.342 µM)
MIC [7]: 0.25 µg/mL (≈ 0.713 µM)
MIC [8]: 0.06 µg/mL (≈ 0.171 µM)

CC1CCCC(C(=O)Nc2nc3ccc(C(F)(F)F)cc3s2)C1 (stereo not drawn)
MIC (Mycobacterium avium): 16 µg/mL (≈ 46.7 µM)
MIC [1]: 16 µg/mL (≈ 46.7 µM)
MIC [9]: 16 µg/mL (≈ 46.7 µM)
MIC [2]: 4 µg/mL (≈ 11.7 µM)
MIC [3]: 2 µg/mL (≈ 5.84 µM)
MIC [4]: 2 µg/mL (≈ 5.84 µM)
MIC [6]: 2 µg/mL (≈ 5.84 µM)
MIC (Mycobacteroides chelonae): 1 µg/mL (≈ 2.92 µM)
MIC [7]: 2 µg/mL (≈ 5.84 µM)
MIC [8]: 1 µg/mL (≈ 2.92 µM)

CC12CCCC(C(=O)Nc3nc4ccc(OC(F)F)cc4s3)(CCC1)C2
MIC (Mycobacterium avium): 8 µg/mL (≈ 21 µM)
MIC [1]: 4 µg/mL (≈ 10.5 µM)
MIC [2]: 0.25 µg/mL (≈ 0.657 µM)
MIC [3]: 0.12 µg/mL (≈ 0.315 µM)
MIC [4]: 0.12 µg/mL (≈ 0.315 µM)
MIC [6]: 0.12 µg/mL (≈ 0.315 µM)
MIC (Mycobacteroides chelonae): 0.25 µg/mL (≈ 0.657 µM)
MIC [7]: 1 µg/mL (≈ 2.63 µM)
MIC [8]: 0.12 µg/mL (≈ 0.315 µM)

Cc1cc(C)c2sc(NC(=O)C34CCCC(C)(CCC3)C4)nc2c1
MIC (Mycobacterium avium): 8 µg/mL (≈ 23.4 µM)
MIC [1]: 8 µg/mL (≈ 23.4 µM)
MIC [2]: 0.25 µg/mL (≈ 0.73 µM)
MIC [3]: 0.12 µg/mL (≈ 0.35 µM)
MIC [4]: 0.12 µg/mL (≈ 0.35 µM)
MIC [5]: 0.25 µg/mL (≈ 0.73 µM)
MIC [6]: 0.12 µg/mL (≈ 0.35 µM)
MIC (Mycobacteroides chelonae): 0.12 µg/mL (≈ 0.35 µM)
MIC [7]: 1 µg/mL (≈ 2.92 µM)
MIC [8]: 0.25 µg/mL (≈ 0.73 µM)

CC12CCCC(C(=O)Nc3nc4ccc(C(F)(F)F)cc4s3)(CCC1)C2
MIC (Mycobacterium avium): > 8 µg/mL
MIC [1]: 4 µg/mL (≈ 10.5 µM)
MIC [2]: 0.5 µg/mL (≈ 1.31 µM)
MIC [3]: 0.25 µg/mL (≈ 0.654 µM)
MIC [4]: 0.25 µg/mL (≈ 0.654 µM)
MIC [5]: 0.12 µg/mL (≈ 0.314 µM)
MIC [6]: 0.25 µg/mL (≈ 0.654 µM)
MIC (Mycobacteroides chelonae): 0.5 µg/mL (≈ 1.31 µM)
MIC [7]: 0.5 µg/mL (≈ 1.31 µM)
MIC [8]: 0.12 µg/mL (≈ 0.314 µM)

CC1CC(C(=O)Nc2nc3ccc(C(F)(F)F)cc3s2)CC(C)(C)C1 (stereo not drawn)
MIC (Mycobacterium avium): > 64 µg/mL
MIC [1]: > 64 µg/mL
MIC [2]: 0.5 µg/mL (≈ 1.35 µM)
MIC [3]: 0.5 µg/mL (≈ 1.35 µM)
MIC [4]: 0.5 µg/mL (≈ 1.35 µM)
MIC [6]: 2 µg/mL (≈ 5.4 µM)
MIC (Mycobacteroides chelonae): 0.25 µg/mL (≈ 0.675 µM)
MIC [7]: 0.5 µg/mL (≈ 1.35 µM)
MIC [8]: 0.25 µg/mL (≈ 0.675 µM)

CC1CC(C(=O)Nc2nc3c(F)cccc3s2)CC(C)(C)C1 (stereo not drawn)
MIC (Mycobacterium avium): 8 µg/mL (≈ 25 µM)
MIC [1]: 8 µg/mL (≈ 25 µM)
MIC [9]: 4 µg/mL (≈ 12.5 µM)
MIC [2]: 2 µg/mL (≈ 6.24 µM)
MIC [3]: 1 µg/mL (≈ 3.12 µM)
MIC [4]: 2 µg/mL (≈ 6.24 µM)
MIC [6]: 1 µg/mL (≈ 3.12 µM)
MIC (Mycobacteroides chelonae): 2 µg/mL (≈ 6.24 µM)
MIC [7]: 0.5 µg/mL (≈ 1.56 µM)
MIC [8]: 2 µg/mL (≈ 6.24 µM)

CC1CC(C(=O)Nc2nc3cccc(O)c3s2)CC(C)(C)C1 (stereo not drawn)
MIC [1]: 4 µg/mL (≈ 12.6 µM)
MIC [3]: 16 µg/mL (≈ 50.2 µM)
MIC [4]: 8 µg/mL (≈ 25.1 µM)
MIC [5]: 2 µg/mL (≈ 6.28 µM)
MIC [6]: 2 µg/mL (≈ 6.28 µM)
MIC (Mycobacteroides chelonae): 1 µg/mL (≈ 3.14 µM)
MIC [7]: 2 µg/mL (≈ 6.28 µM)
MIC [8]: 0.12 µg/mL (≈ 0.377 µM)

From ChEMBL document CHEMBL4265897, “Discovery of benzothiazole amides as potent antimycobacterial agents” (Bioorg Med Chem Lett, 2018)
